Experimental data published in patent US20190231730A1, “TREATMENT OF A DISEASE MEDIATED BY ARACHIDONIC ACID OR AN EICOSANOID” (priority 2016, published 2019).

Key:
[1] = tested on: patients suffering from Cystic Fibrosis; settings: six patients; topical under arm pits, once monthly; 0.01-1 microgram in DMSO
Protocol: (§1) The formulation was applied under arm pits (topically) to patients suffering from Cystic Fibrosis, psoriasis, ulcerative colitis and Ankylosing Spondylitis. Six patients suffering from Cystic fibrosis were administered this formulation once monthly.

[2] = tested on: patients with ulcerative colitis; settings: one patient
[3] = tested on: patients with Ankylosing Spondylitis; settings: three patients
[4] = tested on: patient with psoriasis; assay: Topical formulation in patients with psoriasis; settings: approximately 30 patients
Protocol: as §1

[5] = tested on: oesophageal adenocarcinoma; settings: rat model; LTA4 hydrolase inhibitor, inhibition of LTB4 synthesis; cited from earlier work

| SMILES | clinical benefit and symptoms in Cystic Fibrosis [1] | decrease in all ulcerative mediations [2] [%] | reversal of symptomatology in ulcerative colitis [2] [%] | symptoms of Ankylosing Spondylitis [3] | duration of symptom-free state in psoriasis [4] | healing of psoriatic lesions on skin [4] | burden of oesophageal adenocarcinoma [5] |
| --- | --- | --- | --- | --- | --- | --- | --- |
| CCCCC/C=C\C/C=C\C/C=C\CC#CCCCC(=O)O [5,6-dehydro arachidonic acid] | significant clinical benefit and reduction of symptoms | 100 | 100 | helped them with the symptoms | remained symptom free for years | completely healed their psoriatic lesions | – |
| CC(C)C[C@H](NC(=O)[C@@H](O)[C@H](N)Cc1ccccc1)C(=O)O [bestatin] | – | – | – | – | – | – | reduced the burden of oesophageal adenocarcinoma |
